Measured values taken from ChEMBL document CHEMBL5608244, “Preclinical Evaluation of Dihydropyrazole-Cored Positron Emission Tomography (PET) Ligands for Imaging of Receptor-Interacting Serine/Threonine Protein Kinase 1 (RIPK1) in the Brain” (J Med Chem, 2024).

What was measured:
[1] = Retention time of the compound by HPLC method; assay type: physicochemical
[2] = Lipophilicity, logD of compound at pH 7.4 by shake flask method; assay type: physicochemical; details: buffer
[3] = Drug uptake in Sprague-Dawley rat brain at 10 to 17.6 MBq, iv treated for about 1 min by PET analysis; assay type: ADME, organism-based; details: in vivo, dose 10-17.6 MBq
[4] = Drug uptake in Sprague-Dawley rat bone at 10 to 17.6 MBq, iv treated upto 30 mins by PET analysis; assay type: ADME, organism-based, Bone element; details: in vivo, 0.5 h, dose 10-17.6 MBq
[5] = Drug uptake in Sprague-Dawley rat brain at 10 to 17.6 MBq, iv pretreated with 1-(5-(3-fluorophenyl)-4,5-dihydro-1H-pyrazol-1-yl)-2,2-dimethylpropan-1-one followed by compound administration measured upto 30 mins by PET analysis; assay type: ADME, organism-based; details: in vivo, 0.5 h, dose 10-17.6 MBq
[6] = Stability in saline measured for 60 to 150 mins by reversed-phase HPLC analysis; assay type: physicochemical; details: buffer; time 60-150 min
[7] = Stability in Balb/c mouse plasma measured for 60 to 150 mins by reversed-phase HPLC analysis; assay type: ADME; details: time 60-150 min

| Structure (SMILES) | Retention_time [1] | logD [2] | SUVmax [3] | Drug uptake [4] | Drug uptake [5] | Stability [6] | Stability [7] |
| --- | --- | --- | --- | --- | --- | --- | --- |
| Cc1ccc(C2CC=NN2C(=O)C(C)(C)C)cc1F (stereo not given) | 21.7 min | – | – | – | – | – | – |
| CC(C)(C)C(=O)N1N=CCC1c1cccc(F)c1 (stereo not given) | 21.74 min | – | – | – | – | – | – |
| CC(C)(C)C(=O)N1N=CCC1c1cc(F)cc(F)c1 (stereo not given) | 13.66 min | – | – | – | – | – | – |
| Cc1ccc(C2CC=NN2C(=O)C(C)(C)C)cc1[18F] (stereo not given) | 21.81 min | 2.98 | 1.4 | Not Active | Active | – | – |
| CC(C)(C)C(=O)N1N=CCC1c1cc(F)cc([18F])c1 (stereo not given) | 13.76 min | 2.58 | 1.8 | Not Active | Active | > 99% | > 97% |
